Source: US20250195530A1, “POLQ INHIBITORS” (ASTRAZENECA AB, priority 2022, published 2025)
Like-named read-outs stand apart in the source and are kept apart here. One block for each compound: values may come before it.

Key:
DLD-1 BRCA2−/− cells = assay: Homologous recombination synthetic lethal inhibition of proliferation, DLD-1 BRCA2-/- (Cell Titre Glo 3D); assay type: cell-based; conditions: Homo sapiens
Procedure, shortened: (§1)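 Read-out: CellTiter-Glo 3D luminescence, day 7 for wt DLD-1, day 12 for BRCA2−/−, about 8-9 population doublings each. Seeding 1,500 or 3,000 cells/mL respectively. Dose range 10 μM–0.51 nM, 3-fold, 10 points, with re-dosing on day 6. IC50 from curve fit.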

DLD-1 cells = assay: Inhibition of proliferation, DLD-1 BRCA2 wt control (Cell Titre Glo 3D); assay type: cell-based; conditions: Homo sapiens
Procedure, shortened: as §1

[1] = DLD-1, 288 h, DLD-1 BRCA2−/− cells, 12 days, read-out: POLQ PD Prolif Lumin BRCA2 −/− mean pIC50 (converted)
[2] = DLD-1, 168 h, DLD-1 BRCA2 wt cells, 7 days, read-out: POLQ PD Prolif Lumin DLD1 mean pIC50 (converted)
[3] = DLD-1, first proliferation column (c5), DLD-1 BRCA2-/-, read-out: POLQ PD Prolif Lumin (converted)
[4] = DLD-1, second proliferation column (c6), DLD-1 BRCA2 wt control, read-out: POLQ PD Prolif Lumin (converted)
[5] = DLD-1, proliferation, luminescence, taken as DLD-1 BRCA2-/-, read-out: POLQ PD Prolif Lumin (converted)
[6] = DLD-1, proliferation, luminescence, second Prolif column (c6), taken as DLD-1 BRCA2 wt control, read-out: POLQ PD Prolif Lumin (converted)
[7] = DLD-1, DLD-1 BRCA2 −/−, mean, read-out: POLQ PD Prolif Lumin BRCA2 −/− mean pIC50 (converted)
[8] = DLD-1, DLD1 BRCA2 wt, mean, read-out: POLQ PD Prolif Lumin DLD1 mean pIC50 (converted)
[9] = DLD-1, DLD-1 BRCA2-/- proliferation, column head only partly shown, read-out: POLQ PD Prolif Lumin (converted)
[10] = DLD-1, DLD-1 BRCA2 wt control proliferation, column head only partly shown, read-out: POLQ PD Prolif Lumin (converted)
[11] = DLD-1, first proliferation column, DLD-1 BRCA2-/-, read-out: POLQ PD Prolif Lumin (converted)
[12] = DLD-1, second proliferation column, DLD-1 BRCA2 wt control, read-out: POLQ PD Prolif Lumin (converted)

SMILES: CC(=O)N1CCN(CCCOc2cc(C)c(-c3nc4c(OC5(C)CC5)ncnc4n3Cc3ccccc3)cn2)CC1 [Example G3, 1-(4-(3-((5-(9-benzyl-6-(1-methylcyclopropoxy)-9H-purin-8-yl)-4-methylpyridin-2-yl)oxy)propyl)piperazin-1-yl)ethan-1-one]
IC50 (DLD-1 BRCA2−/− cells; [1]): 1 µM | IC50 (DLD-1 cells; [2]): 6.31 µM

SMILES: Cc1cc(OCCN2CCN(C)CC2)ccc1-c1nc2c(OC3(C)CC3)ncnc2n1Cc1ccccc1 [Example C1, 9-benzyl-8-(2-methyl-4-(2-(4-methylpiperazin-1-yl)ethoxy)phenyl)-6-(1-methylcyclopropoxy)-9H-purine]
IC50 (DLD-1 BRCA2−/− cells; [1]): 0.1 µM | IC50 (DLD-1 cells; [2]): 5.01 µM

SMILES: CN1CCN(CCOc2ccc(-c3nc4c(OC5(C)CC5)ncnc4n3Cc3ccncc3)c(Cl)c2)CC1 [Example K1, 8-(2-chloro-4-(2-(4-methylpiperazin-1-yl)ethoxy)phenyl)-6-(1-methylcyclopropoxy)-9-(pyridin-4-ylmethyl)-9H-purine]
IC50 (DLD-1 BRCA2−/− cells; [1]): 1 µM | IC50 (DLD-1 cells; [2]): > 10 µM

SMILES: Cc1ccnc(Cn2c(-c3ccc(CC(N)=O)cc3Cl)nc3c(OC4(C)CC4)ncnc32)c1 [Example 30, 2-(3-Chloro-4-(6-(1-methylcyclopropoxy)-9-((4-methylpyridin-2-yl)methyl)-9H-purin-8-yl)phenyl)acetamide]
IC50 (DLD-1 BRCA2−/− cells; DLD-1, 288 h, DLD-1 BRCA2−/−, 12 days, Cell Titre Glo 3D, read-out: POLQ PD Prolif Lumin BRCA2 −/− Mean pIC50 (converted)): 0.631 µM | IC50 (DLD-1 cells; DLD-1, 168 h, DLD-1 (BRCA2 wt control), 7 days, Cell Titre Glo 3D, read-out: POLQ PD Prolif Lumin DLD1 Mean pIC50 (converted)): > 10 µM

SMILES: CN1CCN(CCOc2cc(Cl)c(-c3nc4c(OC5(C)CC5)ncnc4n3Cc3ccccc3)cn2)CC1 [Example 20, 9-Benzyl-8-(4-chloro-6-(2-(4-methylpiperazin-1-yl)ethoxy)pyridin-3-yl)-6-(1-methylcyclopropoxy)-9H-purine]
IC50 (DLD-1 BRCA2−/− cells; [1]): 0.398 µM | IC50 (DLD-1 cells; [2]): 7.94 µM

SMILES: Cc1scnc1Cn1c(-c2ccc(OCCN3CCNCC3)cc2Cl)nc2c(OC3(C)CC3)ncnc21 [Example K12, 4-((8-(2-chloro-4-(2-(piperazin-1-yl)ethoxy)phenyl)-6-(1-methylcyclopropoxy)-9H-purin-9-yl)methyl)-5-methylthiazole]
IC50 (DLD-1 BRCA2−/− cells; [1]): 1.58 µM | IC50 (DLD-1 cells; [2]): > 10 µM

SMILES: CN1CCN(C(=O)COc2ccc(-c3nc4c(OC5(C)CC5)ncnc4n3Cc3ccccc3)c(Cl)c2)CC1 [Example C9, 2-(4-(9-benzyl-6-(1-methylcyclopropoxy)-9H-purin-8-yl)-3-chloro-phenoxy)-1-(4-methyl-piperazin-1-yl)ethan-1-one]
IC50 (DLD-1 BRCA2−/− cells; [1]): 0.126 µM | IC50 (DLD-1 cells; [2]): > 10 µM

SMILES: C#CC1(Oc2ncnc3c2nc(-c2ccc(OCCN4CCNCC4)cc2Cl)n3Cc2ccccc2)CCC1 [Example Q3, 9-benzyl-8-(2-chloro-4-(2-(piperazin-1-yl)ethoxy)phenyl)-6-(1-ethynylcyclobutoxy)-9H-purine]
IC50 (DLD-1 BRCA2−/− cells; [1]): 0.251 µM | IC50 (DLD-1 cells; [2]): 5.01 µM

SMILES: CN1CCN(CCOc2ccc(-c3nc4c(OC5(C)CC5)ncnc4n3Cc3ccccc3)c(C#N)c2)CC1 [Example H8, 2-(9-benzyl-6-(1-methylcyclopropoxy)-9H-purin-8-yl)-5-(2-(4-methylpiperazin-1-yl)ethoxy)benzonitrile]
IC50 (DLD-1 BRCA2−/− cells; [1]): 0.398 µM | IC50 (DLD-1 cells; [2]): > 10 µM

Now from value to compound, other results behind:

IC50 (DLD-1 cells; [4]): 10 µM
SMILES: Cc1ccnc(Cn2c(-c3ccc(C(=O)N4CCC4)cc3Cl)nc3c(OC4(C)CC4)ncnc32)c1 [Example T169, azetidin-1-yl(3-chloro-4-(6-(1-methylcyclopropoxy)-9-((4-methylpyridin-2-yl)methyl)-9H-purin-8-yl)phenyl)methanone]
IC50 (DLD-1 BRCA2−/− cells; [3]): 0.631 µM

IC50 (DLD-1 cells; [4]): > 10 µM
SMILES: CC1(Oc2ncnc3c2nc(-c2cccc(OC(C)(C)C(=O)O)c2Cl)n3Cc2cccc(Cl)c2)CC1 [Example T158, 2-(2-chloro-3-(9-(3-chlorobenzyl)-6-(1-methylcyclopropoxy)-9H-purin-8-yl)phenoxy)-2-methylpropanoic acid]
IC50 (DLD-1 BRCA2−/− cells; [3]): > 10 µM

IC50 (DLD-1 cells; [6]): > 10 µM
SMILES: CC(CCOc1ccc(-c2nc3c(OC4(C)CC4)ncnc3n2Cc2cc(C(F)(F)F)ccc2F)c(Cl)c1)C(=O)O (racemic) [Example T395, 4-(3-chloro-4-(9-(2-fluoro-5-(trifluoromethyl)benzyl)-6-(1-methylcyclopropoxy)-9H-purin-8-yl)phenoxy)-2-methylbutanoic acid]
IC50 (DLD-1 BRCA2−/− cells; [5]): 0.1 µM

IC50 (DLD-1 cells; [6]): > 10 µM
SMILES: Cc1ccnc(Cn2c(-c3ccc(CC(=O)N4CC(C)(O)C4)cc3Cl)nc3c(OC4(C)CC4)ncnc32)c1 [Example T470, 2-(3-chloro-4-(6-(1-methylcyclopropoxy)-9-((4-methylpyridin-2-yl)methyl)-9H-purin-8-yl)phenyl)-1-(3-hydroxy-3-methylazetidin-1-yl)ethan-1-one]
IC50 (DLD-1 BRCA2−/− cells; [5]): 1 µM

IC50 (DLD-1 cells; [8]): > 10 µM
SMILES: COc1ccc(F)cc1Cn1c(-c2ccc(OCCC(C)C(=O)O)cc2Cl)nc2c(OC3(C)CC3)ncnc21 (racemic) [Example U2, 4-(3-chloro-4-(9-(5-fluoro-2-methoxybenzyl)-6-(1-methylcyclopropoxy)-9H-purin-8-yl)phenoxy)-2-methylbutanoic acid]
IC50 (DLD-1 BRCA2−/− cells; [7]): 0.0631 µM

IC50 (DLD-1 cells; [2]): 2 µM
SMILES: C[C@H]1CNCCN1CCOc1ccc(-c2nc3c(OC4(C)CC4)ncnc3n2Cc2ccccc2)c(Cl)c1 [Example R10, (S)-9-benzyl-8-(2-chloro-4-(2-(2-methylpiperazin-1-yl)ethoxy)phenyl)-6-(1-methylcyclopropoxy)-9H-purine]
IC50 (DLD-1 BRCA2−/− cells; [1]): 0.126 µM

IC50 (DLD-1 cells; [10]): > 10 µM
SMILES: Cc1ccnc(Cn2c(-c3ccc(N4CC(C(N)=O)C4)cc3Cl)nc3c(OC4(C)CC4)ncnc32)c1 [Example T204, 1-(3-chloro-4-(6-(1-methylcyclopropoxy)-9-((4-methylpyridin-2-yl)methyl)-9H-purin-8-yl)phenyl)azetidine-3-carboxamide]
IC50 (DLD-1 BRCA2−/− cells; [9]): 0.631 µM

IC50 (DLD-1 cells; [6]): > 10 µM
SMILES: Cc1ccnc(Cn2c(-c3ccc(OC4CC5(CNC5)C4)cc3Cl)nc3c(OC4(C)CC4)ncnc32)c1 [Example T457, 8-(4-((2-azaspiro[3.3]heptan-6-yl)oxy)-2-chlorophenyl)-6-(1-methylcyclopropoxy)-9-((4-methylpyridin-2-yl)methyl)-9H-purine]
IC50 (DLD-1 BRCA2−/− cells; [5]): 0.316 µM

IC50 (DLD-1 cells; [12]): > 10 µM
SMILES: Cc1cc(C)nc(Cn2c(-c3ccc(OCCN4CCNCC4)cc3Cl)nc3c(OC4(C)CC4)ncnc32)c1 [Example T595, 8-(2-chloro-4-(2-(piperazin-1-yl)ethoxy)phenyl)-9-((4,6-dimethylpyridin-2-yl)methyl)-6-(1-methylcyclopropoxy)-9H-purine]
IC50 (DLD-1 BRCA2−/− cells; [11]): 1.26 µM

IC50 (DLD-1 cells; [8]): > 10 µM
SMILES: COc1ccc(Cl)cc1Cn1c(-c2cccc(OCCCOCC(=O)O)c2Cl)nc2c(OC3(C)CC3)ncnc21 [Example U30, 2-(3-(2-chloro-3-(9-(5-chloro-2-methoxybenzyl)-6-(1-methylcyclopropoxy)-9H-purin-8-yl)phenoxy)propoxy)acetic acid]
IC50 (DLD-1 BRCA2−/− cells; [7]): 0.02 µM

IC50 (DLD-1 cells; [4]): > 10 µM
SMILES: CC1(Oc2ncnc3c2nc(-c2ccc(OCCCCCCC(=O)O)cc2Cl)n3Cc2cccc(Cl)c2)CC1 [Example T561, 7-(3-chloro-4-(9-(3-chlorobenzyl)-6-(1-methylcyclopropoxy)-9H-purin-8-yl)phenoxy)heptanoic acid]
IC50 (DLD-1 BRCA2−/− cells; [3]): 0.0398 µM

IC50 (DLD-1 cells; [4]): > 10 µM
SMILES: CC1(Oc2ncnc3c2nc(-c2cccc(OCCCC(=O)O)c2Cl)n3Cc2cccc(Cl)c2)CC1 [Example T157, 4-(2-chloro-3-(9-(3-chlorobenzyl)-6-(1-methylcyclopropoxy)-9H-purin-8-yl)phenoxy)butanoic acid]
IC50 (DLD-1 BRCA2−/− cells; [3]): 0.0316 µM

IC50 (DLD-1 cells; [12]): > 10 µM
SMILES: CC(CCOc1ccc(-c2nc3c(OC4(C)CC4)ncnc3n2Cc2ccccc2C2CC2)c(Cl)c1)C(=O)O (racemic) [Example T598, 4-(3-chloro-4-(9-(2-cyclopropylbenzyl)-6-(1-methylcyclopropoxy)-9H-purin-8-yl)phenoxy)-2-methylbutanoic acid]
IC50 (DLD-1 BRCA2−/− cells; [11]): 0.631 µM

IC50 (DLD-1 cells; [8]): > 10 µM
SMILES: COc1ccc(C)cc1Cn1c(-c2ccc(OCC[C@H](C)C(=O)O)cc2Cl)nc2c(OC3(C)CC3)ncnc21 [Example U94, (S)-4-(3-chloro-4-(9-(2-methoxy-5-methylbenzyl)-6-(1-methylcyclopropoxy)-9H-purin-8-yl)phenoxy)-2-methylbutanoic acid]
IC50 (DLD-1 BRCA2−/− cells; [7]): 0.0501 µM

IC50 (DLD-1 cells; [10]): > 10 µM
SMILES: CC(CCOc1ccc(-c2nc3c(OC4(C)CC4)ncnc3n2Cc2cccc(I)c2)c(Cl)c1)C(=O)O (racemic) [Example T285, 4-(3-chloro-4-(9-(3-iodobenzyl)-6-(1-methylcyclopropoxy)-9H-purin-8-yl)phenoxy)-2-methylbutanoic acid]
IC50 (DLD-1 BRCA2−/− cells; [9]): 0.251 µM

IC50 (DLD-1 cells; [4]): > 10 µM
SMILES: CC1(Oc2ncnc3c2nc(-c2ccc(OCCN4CCC[C@H]4C(=O)O)cc2Cl)n3Cc2cccc(Cl)c2)CC1 [Example T551, (2-(3-chloro-4-(9-(3-chlorobenzyl)-6-(1-methylcyclopropoxy)-9H-purin-8-yl)phenoxy)ethyl)-L-proline]
IC50 (DLD-1 BRCA2−/− cells; [3]): 0.316 µM
